These results are taken from patent US6664069B1, “Use of GABAB receptor agonists in the screening of compounds which are reflux inhibitors” (AstraZeneca AB, priority 1996, dated 2003).

For this data set, the system named is transient lower esophageal sphincter relaxations (TLESR). Put plainly: Effect of GABAB receptor agonists on TLESR in dog after nutrient infusion and air insufflation. The format is in vivo. Particulars: for TLESR % of control at 90 min / TLESR % of control at 45 min: mean ± SEM; for TLESR % of control at 45 min: first 45 min. The protocol: Adult Labrador retriever dogs of both sexes (5 males, 3 females) weighing 20-30 kg were used. A cervical esophagostomy was formed to allow intubation. After a recovery period, the dogs were used in control experiments until a stable and reliable control response had been achieved. The dogs were used in other experiments before they were given the GABAB receptor agonists, but they were always allowed a wash-out period of at least two days during which time no drugs were administered. Every fourth experiment on each dog was a control experiment to ensure stability and reproducibility of the results.
The experiments were started at about 8 a.m. at which time the animals had been fasting for approximately 17 hrs. The dog was placed in a Pavlov stand to which it had been accustomed previously. A thin silicone catheter with a distal opening was introduced retrogradely through the esophagostomy into the pharynx to record swallowing. The catheter was perfused with air at approximately 2 ml/min. A multilumen assembly was positioned so that pressures could be recorded in the proximal stomach, LES and at four sites in the distal esophagus. The assembly was fitted with a 6 cm long sleeve to measure LES pressure reliably. Gastric and LES channels were perfused with distilled degassed water at 0.45 ml/min and esophageal channels at 0.1 ml/min. A low-compliance pneumohydraulic pump was used to achieve optimal perfusion conditions. Intraluminal pressures were measured with external pressure transducers. The signals were amplified and acquired using LabWindows/CVI software (version 3.1). Pressure calibrations were done at 0 and 100 mm Hg with the multilumen assemblies placed at a level slightly below the pressure transducers. The dog was positioned so that the average intragastric (i.g.) pressure approximated 0 mm Hg. An antimony pH-electrode was positioned 3 cm orad to the upper margin of the LES, and the signals were acquired as described above. Analysis of acquired signals was made using LabWindows software.
Baseline measurement was done for at least 10 min, and then vehicle (0.9% NaCl; 0.5 ml/kg) or a GABAB receptor agonist was given i.v. over 2 min. Ten min after the completion of the administration, nutrient was infused i.g. via the multilumen assembly at a rate of 100 ml/min (30 ml/kg). GABA was given as a continuous i.v. infusion which commenced 10 min before nutrient administration; and R, S,-baclofen was in some cases given intragastrically 30 min before nutrient. The nutrient contained 10% peptone (w/v), 5% Intralipid (v/v) and 5% D-glucose (w/v) and was acidified to pH 3.0 with HCl. Immediately after the infusion, air was insufflated at 40 ml/min to make up a total time of 90 min starting from the commencement of nutrient infusion. The dog was then extubated and a baseline measurement was done to ensure that no drift had occurred.
A TLESR was identified by the following criteria; The difference between LES and i.g. pressures was less than 2 mm Hg, the duration was more than 0.5 s and the relaxation was not triggered by primary peristalsis (i.e. by a pharyngeal signal). The rate of pressure drop was more than 10 mm Hg/s. Most, but not all, TLESR could also be detected aurally by a characteristic noise at the esophagostomy (i.e. belching). The total number of TLESR was calculated for the first 45 min period and entire experiment (90 min). The effect of GABAB receptor agonists was expressed relative to individual control data (n≧5). Each agonist was tested in at least two different dogs.

Setting [1] is: 1.8 mg/kg as intravenous infusion over 100 min.
The mark [2] stands for this setting: 5.4 mg/kg as intravenous infusion over 100 min.
Where [3] appears, read: 1.5 mg/kg intragastric admin. 30 min before nutrient.

Regarding `NCCCC(=O)O` [GABA, 4-aminobutanoic acid], under setting [1], the “TLESR % of control at 90 min” value is 61 ± 3 % of control and the “TLESR % of control at 45 min” value is 62 ± 2 % of control. Moreover, under setting [2], the “TLESR % of control at 90 min” value is on record as 54 ± 10 % of control and the “TLESR % of control at 45 min” value is 57 ± 6 % of control.

Take `CP(=O)(O)C[C@@H](O)CN` [(3-amino-2-(S)-hydroxypropyl)methylphosphinic acid]: the “TLESR % of control at 90 min” value runs as follows: (0.03 mg/kg intravenously) 65 ± 10 % of control; (0.3 mg/kg intravenously) 38 ± 6 % of control. The “TLESR % of control at 45 min” value runs as follows: (0.03 mg/kg intravenously) 53 ± 7 % of control; (0.3 mg/kg intravenously) 0 ± 0 % of control.

On to `NC[C@H](CC(=O)O)c1ccc(Cl)cc1` [R-baclofen], for which, for the setting “0.3 mg/kg intravenously”, the “TLESR % of control at 90 min” value was 40 ± 11 % of control and the “TLESR % of control at 45 min” value is given as 36 ± 10 % of control.

With `CP(=O)(O)CCCN` [(3-aminopropyl)methylphosphinic acid], the “TLESR % of control at 90 min” value by setting is: (0.003 mg/kg intravenously) 76 ± 5 % of control; (0.01 mg/kg intravenously) 39 ± 7 % of control; (0.03 mg/kg intravenously) 50 ± 17 % of control; (0.1 mg/kg intravenously) 33 ± 9 % of control. Besides, the “TLESR % of control at 45 min” value reads like this: (0.003 mg/kg intravenously) 57 ± 12 % of control; (0.01 mg/kg intravenously) 32 ± 8 % of control; (0.03 mg/kg intravenously) 25 ± 4 % of control; (0.1 mg/kg intravenously) 5 ± 5 % of control.

For `NC[C@@H](CC(=O)O)c1ccc(Cl)cc1` [S-baclofen], where the note is “1.5 mg/kg intravenously”, the “TLESR % of control at 90 min” value is 92 ± 10 % of control and the “TLESR % of control at 45 min” value is recorded as 76 ± 10 % of control.

Take `NCC(CC(=O)O)c1ccc(Cl)cc1` (racemic) [R, S-baclofen, 4-amino-3-(4-chlorophenyl)butanoic acid]: the “TLESR % of control at 90 min” value (0.3 mg/kg intravenously) was 66 ± 8 % of control, the “TLESR % of control at 90 min” value under setting [3] is 54 ± 12 % of control and the “TLESR % of control at 90 min” value (1.5 mg/kg intravenously) is listed as 43 ± 19 % of control. Further, the “TLESR % of control at 45 min” value (0.3 mg/kg intravenously) was 47 ± 6 % of control, the “TLESR % of control at 45 min” value under setting [3] is 12 ± 6 % of control and the “TLESR % of control at 45 min” value (1.5 mg/kg intravenously) is recorded as 11 ± 6 % of control. Moreover, the behavioural side effects entry (high R,S-baclofen dose, disappeared approximately one hour after the administration) is “some sedation”.
